≈ marks a conversion by molar mass, not a printed value. Values belong to the compound of their own block, whether it stands above or below them.
Tests used:
Coagulation factor X = Coagulation factor X (Homo sapiens, UniProt P00742); assay: Inhibition of human factor Xa
A-375 = assay: Cytotoxicity against human A-375 cells assessed as reduction in cell growth measured after 24 hrs by MTT assay; type: functional, cell-based; details: A-375, 24 h
A2780 = assay: Antiproliferative activity against human A2780 cells assessed as reduction in cell growth incubated for 72 hrs by MTT assay; type: functional, cell-based; details: A2780, 72 h
FaDu = assay: Antiproliferative activity against human FaDu cells assessed as inhibition of cell growth incubated for 72 hrs by 3H-thymidine incorporation assay; type: functional, cell-based
HT-29 = assay: Antiproliferative activity against human HT-29 cells assessed as reduction in cell viability incubated for 24 hrs by MTT assay; type: functional, cell-based; details: HT-29, 24 h
[1] = target: T1, Fibroblast growth factor receptor 1 (Homo sapiens, UniProt P11362); assay: Inhibition of human recombinant FGFR1 at 10 uM by Enzyme-linked immunosorbent assay relative to control
[2] = target: T1, Fibroblast growth factor receptor 1; assay: Inhibition of human recombinant FGFR1 at 1 uM by Enzyme-linked immunosorbent assay relative to control
H322 = assay: Antiproliferative activity against human H322 cells assessed as reduction in cell viability incubated for 48 hrs by SRB assay; type: functional, cell-based; details: NCI-H322, 48 h
A549 = assay: Antiproliferative activity against human A549 cells assessed as reduction in cell viability incubated for 48 hrs by SRB assay; type: functional, cell-based; details: A549, 48 h
HepG2 = assay: Cytotoxicity against human HepG2 cells assessed as reduction in cell viability incubated for 72 hrs by MTT assay; type: functional, cell-based; details: HepG2, 72 h
[3] = target: Telomerase reverse transcriptase (Homo sapiens, UniProt O14746); assay: Inhibition of telomerase (unknown origin)
[4] = target: Amine oxidase [flavin-containing] B (Homo sapiens, UniProt P27338); assay: Inhibition of human recombinant MAO-B expressed in insect cells incubated for 15 mins by Amplex red and horseradish peroxidase based fluorescence assay; set-up: species or system Insect cell
Histone deacetylase 3 = Histone deacetylase 3 (Homo sapiens, UniProt O15379); assay: Inhibition of human recombinant HDAC3
Histone deacetylase 1 = Histone deacetylase 1 (Homo sapiens, UniProt Q13547); assay: Inhibition of human recombinant HDAC1
Histone deacetylase 2 = Histone deacetylase 2 (Homo sapiens, UniProt Q92769); assay: Inhibition of human recombinant HDAC2
Cholinesterase = Cholinesterase (Homo sapiens, UniProt P06276); assay: Inhibition of BchE (unknown origin)
Acetylcholinesterase = Acetylcholinesterase (Homo sapiens, UniProt P22303); assay: Inhibition of AChE (unknown origin)
Rhizoctonia solani = assay: Antifungal activity Rhizoctonia solani assessed as fungal growth inhibition measured after 4 to 8 days; type: functional, organism-based
[5] = Antiproliferative activity against mouse […] cells assessed as inhibition of cell growth incubated for 48 hrs by MTT assay; type: functional, cell-based
MCF7 [6] = assay: Antiproliferative activity against human MCF7 cells assessed as inhibition of cell growth at 10 uM incubated for 48 hrs by SRB assay relative to control; type: functional; set-up: scale not given: the % may be the effect or the level left
HeLa = assay: Antiproliferative activity against human HeLa cells assessed as reduction in cell viability incubated for 24 hrs by MTT assay; type: functional, cell-based
PC-3 = assay: Antiproliferative activity against human PC-3 cells assessed as reduction in cell viability incubated for 24 hrs by MTT assay; type: functional, cell-based; details: PC-3, 24 h
MDA-MB-231 = assay: Antiproliferative activity against human MDA-MB-231 cells assessed as reduction in cell growth incubated for 48 hrs by MTT assay; type: functional, cell-based; details: MDA-MB-231, 48 h
MCF7 [7] = assay: Antiproliferative activity against human MCF7 cells assessed as reduction in cell growth incubated for 48 hrs by MTT assay; type: functional, cell-based; details: MCF7, 48 h
4T1 = assay: Cytotoxicity against mouse 4T1 cells assessed as reduction in cell growth incubated for 48 hrs by MTT assay; type: functional, cell-based; details: 4T1, 48 h
HUVEC = assay: Antiproliferative activity against VEGF-stimulated human HUVEC cells assessed as reduction in cell viability incubated for 72 hrs by Cell Counting Kit-8 assay; type: functional, cell-based
[8] = Antiproliferative activity against mouse L929 cells assessed as inhibition of cell growth incubated for 5 days by MTT assay; type: toxicity, cell-based
MCF7 [9] = assay: Cytotoxicity against human MCF7 cells assessed as reduction in cell growth incubated for 24 hrs by MTT assay; type: functional, cell-based; details: MCF7, 24 h
HCT-116 = assay: Antiproliferative activity against human HCT-116 cells assessed reduction in cell growth incubated for 24 hrs by MTT assay; type: functional, cell-based; details: HCT-116, 24 h

T1 sequence (P11362 22-822 limits assumed): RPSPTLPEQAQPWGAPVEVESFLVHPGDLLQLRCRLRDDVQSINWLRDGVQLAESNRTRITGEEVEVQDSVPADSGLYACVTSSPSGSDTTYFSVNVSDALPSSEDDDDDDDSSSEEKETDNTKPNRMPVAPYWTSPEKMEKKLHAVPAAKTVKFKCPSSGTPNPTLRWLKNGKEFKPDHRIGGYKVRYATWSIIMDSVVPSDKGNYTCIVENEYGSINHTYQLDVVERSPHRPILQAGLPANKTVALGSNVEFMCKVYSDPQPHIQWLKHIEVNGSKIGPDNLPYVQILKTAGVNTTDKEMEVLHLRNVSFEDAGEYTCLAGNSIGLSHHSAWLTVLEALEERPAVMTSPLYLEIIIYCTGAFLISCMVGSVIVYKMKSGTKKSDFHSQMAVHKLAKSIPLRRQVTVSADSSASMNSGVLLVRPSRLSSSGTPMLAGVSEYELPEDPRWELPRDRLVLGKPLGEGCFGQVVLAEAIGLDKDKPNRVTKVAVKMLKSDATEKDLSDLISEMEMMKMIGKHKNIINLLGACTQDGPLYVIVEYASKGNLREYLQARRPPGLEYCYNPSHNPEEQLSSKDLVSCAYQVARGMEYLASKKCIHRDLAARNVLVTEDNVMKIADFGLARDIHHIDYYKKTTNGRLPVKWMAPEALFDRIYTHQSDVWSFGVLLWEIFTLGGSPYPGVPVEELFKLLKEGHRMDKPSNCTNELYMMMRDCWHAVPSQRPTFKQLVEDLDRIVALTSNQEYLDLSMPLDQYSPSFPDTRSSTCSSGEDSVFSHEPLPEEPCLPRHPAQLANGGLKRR
Chain of Cholinesterase (P06276 whole entry): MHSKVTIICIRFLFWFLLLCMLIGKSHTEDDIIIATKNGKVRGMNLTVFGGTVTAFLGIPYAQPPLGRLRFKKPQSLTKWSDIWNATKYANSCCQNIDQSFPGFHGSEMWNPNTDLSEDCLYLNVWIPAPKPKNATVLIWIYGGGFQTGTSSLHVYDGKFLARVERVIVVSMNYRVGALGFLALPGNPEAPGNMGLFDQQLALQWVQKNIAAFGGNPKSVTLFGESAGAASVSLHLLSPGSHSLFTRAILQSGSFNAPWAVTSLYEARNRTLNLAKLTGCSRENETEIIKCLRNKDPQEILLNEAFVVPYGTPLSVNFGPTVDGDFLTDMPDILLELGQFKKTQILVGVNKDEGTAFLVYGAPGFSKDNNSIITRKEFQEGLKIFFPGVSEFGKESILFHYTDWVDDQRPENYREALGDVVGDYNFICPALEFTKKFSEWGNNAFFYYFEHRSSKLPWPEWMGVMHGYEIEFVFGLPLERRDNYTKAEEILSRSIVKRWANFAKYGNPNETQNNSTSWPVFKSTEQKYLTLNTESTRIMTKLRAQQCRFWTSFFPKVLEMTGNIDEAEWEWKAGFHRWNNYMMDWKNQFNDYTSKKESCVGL
Chain of Histone deacetylase 1 (Q13547 whole entry): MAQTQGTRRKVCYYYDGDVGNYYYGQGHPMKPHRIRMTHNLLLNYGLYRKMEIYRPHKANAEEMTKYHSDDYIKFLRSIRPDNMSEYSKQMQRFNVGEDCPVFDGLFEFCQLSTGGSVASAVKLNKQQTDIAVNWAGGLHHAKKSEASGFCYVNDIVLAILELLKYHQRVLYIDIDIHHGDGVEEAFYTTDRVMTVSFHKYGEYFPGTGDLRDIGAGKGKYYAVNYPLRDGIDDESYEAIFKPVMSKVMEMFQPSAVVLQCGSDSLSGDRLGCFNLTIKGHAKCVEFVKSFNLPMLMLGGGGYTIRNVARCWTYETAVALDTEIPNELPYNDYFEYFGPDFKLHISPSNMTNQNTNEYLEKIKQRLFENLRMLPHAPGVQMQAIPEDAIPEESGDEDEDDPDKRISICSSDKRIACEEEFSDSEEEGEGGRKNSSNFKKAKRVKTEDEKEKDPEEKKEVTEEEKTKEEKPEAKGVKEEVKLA
Chain of Telomerase reverse transcriptase (O14746 whole entry): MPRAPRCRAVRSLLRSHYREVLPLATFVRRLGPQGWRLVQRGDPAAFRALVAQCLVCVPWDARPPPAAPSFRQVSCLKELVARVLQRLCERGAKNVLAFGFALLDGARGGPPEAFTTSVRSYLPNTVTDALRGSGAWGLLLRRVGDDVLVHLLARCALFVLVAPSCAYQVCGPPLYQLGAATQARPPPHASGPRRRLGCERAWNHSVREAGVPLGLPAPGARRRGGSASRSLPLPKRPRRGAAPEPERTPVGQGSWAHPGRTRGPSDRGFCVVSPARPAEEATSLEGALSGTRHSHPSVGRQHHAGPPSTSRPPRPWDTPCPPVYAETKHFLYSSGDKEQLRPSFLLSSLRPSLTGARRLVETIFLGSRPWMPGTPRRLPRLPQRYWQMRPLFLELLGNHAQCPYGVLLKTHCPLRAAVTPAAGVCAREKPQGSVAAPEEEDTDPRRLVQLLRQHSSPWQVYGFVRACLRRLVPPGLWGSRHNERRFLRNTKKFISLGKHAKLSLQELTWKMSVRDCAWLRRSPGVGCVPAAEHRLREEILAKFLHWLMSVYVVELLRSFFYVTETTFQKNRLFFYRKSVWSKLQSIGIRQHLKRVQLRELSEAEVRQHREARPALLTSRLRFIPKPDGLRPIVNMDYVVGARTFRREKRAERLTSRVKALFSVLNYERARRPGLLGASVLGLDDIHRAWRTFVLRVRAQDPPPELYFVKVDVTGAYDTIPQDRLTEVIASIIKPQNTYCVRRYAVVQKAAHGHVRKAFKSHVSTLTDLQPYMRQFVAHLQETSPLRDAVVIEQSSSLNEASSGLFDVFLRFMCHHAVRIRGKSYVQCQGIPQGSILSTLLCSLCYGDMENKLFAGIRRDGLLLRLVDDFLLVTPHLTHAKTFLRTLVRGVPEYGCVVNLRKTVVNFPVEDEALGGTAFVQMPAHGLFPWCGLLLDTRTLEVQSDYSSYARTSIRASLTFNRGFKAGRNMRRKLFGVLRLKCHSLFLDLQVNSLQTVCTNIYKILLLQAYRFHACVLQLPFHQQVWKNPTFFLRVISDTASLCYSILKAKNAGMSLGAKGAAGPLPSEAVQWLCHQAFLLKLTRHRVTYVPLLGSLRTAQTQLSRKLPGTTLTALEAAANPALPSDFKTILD
Chain of Acetylcholinesterase (P22303 whole entry): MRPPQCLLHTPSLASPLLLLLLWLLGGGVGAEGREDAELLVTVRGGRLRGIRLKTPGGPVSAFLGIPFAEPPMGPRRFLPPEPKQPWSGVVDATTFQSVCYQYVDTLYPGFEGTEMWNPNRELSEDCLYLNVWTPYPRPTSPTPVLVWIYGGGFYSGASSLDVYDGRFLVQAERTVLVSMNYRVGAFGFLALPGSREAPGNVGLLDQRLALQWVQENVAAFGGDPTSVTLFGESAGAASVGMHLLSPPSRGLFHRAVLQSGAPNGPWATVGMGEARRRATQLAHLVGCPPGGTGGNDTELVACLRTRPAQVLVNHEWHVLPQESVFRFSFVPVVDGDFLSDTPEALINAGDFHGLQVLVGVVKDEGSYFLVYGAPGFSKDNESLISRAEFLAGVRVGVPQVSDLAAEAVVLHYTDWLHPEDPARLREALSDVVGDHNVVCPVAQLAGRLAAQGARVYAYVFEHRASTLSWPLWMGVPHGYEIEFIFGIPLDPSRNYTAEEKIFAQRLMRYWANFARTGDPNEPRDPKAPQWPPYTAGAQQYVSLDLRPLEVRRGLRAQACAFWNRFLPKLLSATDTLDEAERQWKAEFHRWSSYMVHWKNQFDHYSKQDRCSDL
Chain of Histone deacetylase 3 (O15379 whole entry): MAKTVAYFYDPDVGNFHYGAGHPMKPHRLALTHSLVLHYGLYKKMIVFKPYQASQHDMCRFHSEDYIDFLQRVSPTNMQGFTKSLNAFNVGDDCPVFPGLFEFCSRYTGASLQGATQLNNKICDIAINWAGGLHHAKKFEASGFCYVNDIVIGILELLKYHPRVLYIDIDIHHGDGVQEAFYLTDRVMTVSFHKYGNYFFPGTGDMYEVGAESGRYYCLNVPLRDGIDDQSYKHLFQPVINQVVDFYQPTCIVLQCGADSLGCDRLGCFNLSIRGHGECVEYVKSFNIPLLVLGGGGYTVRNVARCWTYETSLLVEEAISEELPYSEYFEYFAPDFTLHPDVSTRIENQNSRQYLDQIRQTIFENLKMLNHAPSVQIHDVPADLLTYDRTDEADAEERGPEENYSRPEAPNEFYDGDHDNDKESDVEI
Chain of Amine oxidase [flavin-containing] B (P27338 whole entry): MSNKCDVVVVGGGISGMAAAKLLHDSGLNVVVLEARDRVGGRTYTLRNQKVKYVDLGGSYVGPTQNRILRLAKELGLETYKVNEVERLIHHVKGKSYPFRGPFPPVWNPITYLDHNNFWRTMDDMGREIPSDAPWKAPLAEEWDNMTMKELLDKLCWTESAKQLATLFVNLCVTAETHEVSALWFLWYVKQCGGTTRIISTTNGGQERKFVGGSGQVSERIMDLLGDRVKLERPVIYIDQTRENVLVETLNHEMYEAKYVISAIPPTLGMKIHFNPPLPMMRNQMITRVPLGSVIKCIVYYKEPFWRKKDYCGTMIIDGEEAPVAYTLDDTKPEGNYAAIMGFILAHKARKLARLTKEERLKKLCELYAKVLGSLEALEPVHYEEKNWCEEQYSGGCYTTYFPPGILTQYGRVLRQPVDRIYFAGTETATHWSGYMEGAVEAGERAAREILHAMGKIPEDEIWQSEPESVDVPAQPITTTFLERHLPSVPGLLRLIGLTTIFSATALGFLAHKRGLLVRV
Chain of Coagulation factor X (P00742 41-179 limits assumed): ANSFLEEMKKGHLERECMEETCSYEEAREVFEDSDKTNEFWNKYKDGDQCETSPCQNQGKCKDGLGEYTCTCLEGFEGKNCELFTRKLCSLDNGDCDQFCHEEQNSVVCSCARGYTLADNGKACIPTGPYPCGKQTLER
Chain of Coagulation factor X (P00742 235-488 limits assumed): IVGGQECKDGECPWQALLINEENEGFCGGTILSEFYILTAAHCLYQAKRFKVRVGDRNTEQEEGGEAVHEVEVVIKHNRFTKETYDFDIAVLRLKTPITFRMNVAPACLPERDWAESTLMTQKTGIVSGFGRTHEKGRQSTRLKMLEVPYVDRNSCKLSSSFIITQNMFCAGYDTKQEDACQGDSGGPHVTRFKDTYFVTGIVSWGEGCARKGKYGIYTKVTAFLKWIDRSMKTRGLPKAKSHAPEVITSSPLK

- IC50 (Coagulation factor X): 0.58 nM
Compound: CN1C2(CCN(c3ccncc3)CC2)CN2C(=O)CN(S(=O)(=O)c3ccc4cc(Cl)ccc4c3)CC21CO (configuration not stated)

- IC50 (A2780): 15700 nM
- IC50 (HT-29): 22700 nM
Compound: CC1c2nccnc2C[C@]2(C)[C@H]3C(=O)C=C4[C@@H]5[C@@H](C)[C@H](C)CC[C@]5(C)CC[C@@]4(C)[C@]3(C)CC[C@@H]12 (some centres not stated)
- IC50 (A-375): 12000 nM
- IC50 (FaDu): > 30000 nM

- inhibition [1]: 93.3%
- inhibition [2]: 92.5%
Compound: Cn1cc(-c2cnc3ccn(S(=O)(=O)c4ccccc4)c3n2)cn1

- IC50 (H322): 50600 nM
- IC50 (A549): 49700 nM
Compound: CCn1c(-c2ccc(OC)cc2)cn2nc(-c3ccc(OC)cc3)cc2c1=O

- IC50 [3]: 1240 nM
Compound: Brc1ccc(CSc2nnc(-c3cnccn3)s2)cc1
- IC50 (HepG2): 780 nM

- IC50 [4]: 780 nM
Compound: O=C(Nc1ccc2c(ccn2Cc2cccc(F)c2)c1)c1cnccn1

- IC50 (Histone deacetylase 3): 6100 nM
- IC50 (Histone deacetylase 1): 70 nM
- IC50 (Histone deacetylase 2): 260 nM
Compound: CN1CCN(c2cnc(C(=O)Nc3cc(-c4cccs4)ccc3[N+](=O)[O-])cn2)CC1

Compound: O=[N+]([O-])c1cccc(-c2cnc3cccnc3n2)c1
- IC50 (Cholinesterase): 1890 nM
- IC50 (Acetylcholinesterase): 466 nM

Compound: O=C(OCc1cnccn1)c1ccccc1
- EC50 (Rhizoctonia solani): 0.02 µg/mL (≈ 0.0934 µM)

Compound: C[C@@H]1[C@@]2(CC[C@](C)(O)CO2)O[C@H]2C=C3[C@@H]4[C@@H](O)C[C@H]5Cc6nc7c(nc6C[C@]5(C)[C@H]4C[C@@H](O)[C@]3(C)[C@]21O)C[C@@H]1CC[C@@H]2[C@H](CC(=O)[C@]23C[C@@H]2O[C@]4(CCC(C)(C)O4)[C@@H](C)[C@@H]2[C@]3(C)O)[C@@]1(C)C7 [RITTERAZINE D]
- EC50 ([5]; time 48 hrs, read-out: ED50 (the source's name)): 0.17 nM

Compound: COc1nccc2c1N1C(=O)c3cc4ccccc4n3C(=O)C1C2 (configuration not stated)
- Activity (MCF7 [6]): 50.9%

Compound: Cc1cnc(COC(=O)c2ccccc2)cn1
- EC50 (Rhizoctonia solani): 0.021 µg/mL (≈ 0.092 µM)

- IC50 (HeLa): 200 nM
- IC50 (PC-3): 530 nM
- IC50 (HT-29): 20 nM
Compound: O=C1c2cccc3c2c(cc2nccnc23)C(=O)N1CCNCCCNCCN1C(=O)c2cccc3c2c(cc2nccnc23)C1=O

- IC50 (MDA-MB-231): 840 nM
- IC50 (MCF7 [7]): 1110 nM
Compound: Cc1nc(C)c(C(=O)NCCCCCCCCCCCCNOC(=O)c2ccc3cc[nH]c3c2)nc1C
- IC50 (4T1): 1160 nM
- IC50 (HUVEC): 3820 nM
- IC50 at 5 days [8]: 3160 nM

Compound: CN(C)CCNc1ccc2c3c(cccc13)-c1nc(C#N)c(C#N)nc1-2
- IC50 (MCF7 [9]): 4600 nM

Compound: CCn1nc(C2CCN(C(=O)CCO)CC2)nc1-c1cnc(N)c(-c2nnc(C(C)(C)C)o2)n1 [AZD-8835]
- IC50 ([5]; 48 h): 930 nM

- IC50 (HCT-116): 79 nM
Compound: C[C@@H]1[C@]2(O[C@H]3C=C4[C@@H]5CC[C@H]6Cc7nc8c(nc7C[C@]6(C)[C@H]5C[C@@H](O)[C@]4(C)[C@]31O)C[C@@H]1CC[C@H]3C4=CC5O[C@@]6(CCC(C)(C)O6)[C@@H](C)[C@@H]5[C@@]4(C)[C@H](O)C[C@@H]3[C@@]1(C)C8)O[C@@](C)(COC(=O)CNC(=O)Cc1cc(=O)oc3cc(N(C)C)ccc13)C[C@H]2O (some centres not stated)
